Laboratory results reported in US20110319392A1, “Thiazole Sulfonamide And Oxazole Sulfonamide Kinase Inhibitors” (priority 2009, published 2011).

Experiments:
ErbB2 = molecular target: T1, ErbB2 (Homo sapiens, UniProt P04626); assay: ErbB-2 substrate phosphorylation assay (HTRF); type: biochemical
T1 construct: made in house; host or cells: baculovirus expression system
Description: (§1) Compounds of the present invention were tested for EGFR and ErbB-2 protein tyrosine kinase inhibitory activity in substrate phosphorylation assays using enzymes purified from a baculovirus expression system. Reagent production was conducted essentially as described in Brignola, P. S., et al, (2002) J. Biol. Chem. 277(2):1576-1585.
(§2) The method measures the ability of the isolated enzyme to catalyse the transfer of the gamma-phosphate from ATP onto the tyrosine residue of a biotinylated synthetic peptide referenced “Peptide C” in Brignola, P. S., et al, (2002) J. Biol. Chem. 277(2):1576-1585. The extent of tyrosine phosphorylation was measured using an anti-phosphotyrosine antibody, and quantified by homogenous time-resolved fluorescence (HTRF).
(§3) Reactions were performed in black 384-well polystyrene flat-bottom plates in a final volume of 20 μL. Assays were performed by adding 10 μL of each of the following solutions, Substrate Mix and Enzyme Mix: The Substrate Mix contained 100 mM 3-[N-morpholino]propanesulfonic acid (MOPS) (pH 7.5), 2 mM MnCl2, 20 μM ATP, 0.01% Tween-20, 0.1 mg/mL (BSA), 0.8 uM peptide substrate, and 1 mM dithiothreitol. The Enzyme Mix contained 100 mM MOPS (pH7.5); 0.01% Tween-20; 0.1 mg/mL BSA, and either 0.8 nM EGFR, 10 nM ErbB2, or 1 nM ErbB4. The Enzyme Mix was added to the compound plates and the plates were incubated at 20° C. for 1 hr. The reactions were then started by adding the Substrate Mix.
(§4) After initiating the reaction with the method described above, the reactions were allowed to proceed for 90 minutes at 20° C. The reactions were then terminated by the addition of 20 μL 100 mM EDTA to each well. 40 μL/well of HTRF detection mix were added to the assay plates. The final concentrations of the detection reagents were: 100 mM HEPES (pH7.5), 0.1 mg/mL BSA, 15 nM streptavidin-labeled allophycocyanin (PerkinElmer), and 1 nM europium-labeled anti-phosphotyrosine antibody (Perkin Elmer). Assay plates were left unsealed and were counted in a Wallac Multilabel Counter 1420 (PerkinElmer).
(§5) Compounds under analysis were dissolved in dimethylsulfoxide (DMSO) to 1.0 mM and serially diluted 1 to 3 with DMSO through twelve dilutions. 1 μL of each concentration was transferred to the corresponding well of an assay plate. This creates a final compound concentration range from 0.00027 to 47.6 μM.
(§6) The data for dose responses were plotted as % Inhibition calculated with the data reduction formula 100*(1-(U1−C2)/(C1−C2)) versus concentration of compound where U1 is the unknown value, C1 is the average control value obtained for 4.76% DMSO, and C2 is the average control value obtained for 0.035 M EDTA. Data were fitted with a curve described by:
(§7) where Vmax is the upper asymptote, Y2 is the Y intercept, and K is the IC50. The results for each compound were recorded as pIC50s, calculated as follows: […]

SK-MEL-28 tumor cells = assay: Cell growth inhibition assay (CellTiter-Glo), SK-MEL-28; type: cell-based, Human; settings: Homo sapiens, SK-MEL-28, 72 h; 3 days incubation
Description: (§8) Human breast tumor cells (BT474) were cultured in RPMI (Mediatech […]), containing 10% FBS (JRH Biosciences 12176) and 1% penicillin-streptomycin (Invitrogen 15140). Human head and neck tumor cells (HN5) were cultured in high glucose DMEM (Mediatech 50-013-PB) containing 10% FBS and 1% penicillin-streptomycin. Human colon tumor cells (Colo205) were cultured in RPMI (Mediatech 50-020-PB) containing 10% FBS and 1% penicillin-streptomycin. Human melanoma cancer cells (SK-MEL-28) were cultured in EMEM with nonessential amino acids (Mediatech 50-011-PB) containing 10% FBS, 1% sodium pyruvate (JT Baker 3354-04), and 1% penicillin-streptomycin. Human melanoma cancer cells (A375P F11s) were cultured in RPMI (Mediatech 50-020-PB) containing 10% FBS, 1% sodium pyruvate, and 1% penicillin-streptomycin. Human colon cancer cells (HT-29) were cultured in high glucose DMEM (Mediatech 50-013-PB) containing 10% FBS and 1% penicillin-streptomycin. Human melanoma cancer cells (SK-MEL-3) were cultured in McCoy's 5A (50-025-PB) containing 15% FBS, and 1% penicillin-streptomycin. All cell lines were maintained at 37° C. in a humidified 5% CO2, 95% air incubator. Cells were harvested using trypsin/EDTA (Invitrogen 25200), counted using a haemocytometer, and plated. For 96-well assays (using white full-area NUNC plates cat. #136102), cells were plated in 105 μL at the following densities (cells/well): HNS, 500; Colo 205, 500; SK-MEL-28, 500; A375P F11s, 500; HT-29, 500; SK-MEL-3, 500; and BT474, 3000. For 384-well assays (white full-area NUNC plates, cat. #781080), cells were plated in 48 μL at the following densities (cells/well): HNS, 500; Colo205, 500; SK-MEL-28, 500; A375P F11s, 500; HT-29, 500; SK-MEL-3, 500; and BT474, 2000.
(§9) The next day, compounds were diluted as follow: For 96-well assays, 13.5 μL of compound in DMSO were diluted using nine (9) serial 1:3 dilutions of 4.5 μL in 9 of DMSO. Medium (270 μL/well of RPMI with 10% FBS and 1% penicillin-streptomycin) was added to the plates. Aliquots (7 μL) were added to cells in the final assay giving a final DMSO concentration of 0.2%. For 384-well assays, 15 μL of compound in DMSO were diluted using nine (9) serial 1:3 dilutions of 5 μL in 10 μL of DMSO, followed by a further dilution of 5 μL of compound with 95 μL of medium, of which 2 μL were added to cells in the final assay giving a final DMSO concentration of 0.2%. Cells were incubated at 37° C., 5% CO2 for 3 days.
(§10) Total ATP was measured (as a surrogate estimate of cell number) using CellTiter-Glo® reagent (Promega G7571). Briefly, plates were removed from the incubator and allowed to equilibrate to room temperature for 30 minutes. CellTiter-Glo® (25 μL or 55 μL for 384-well or 96-well assays, respectively) reagent was added to each well and plates were shaken on an orbital plate shaker for 2 minutes. Plates were incubated without shaking for a further 30 minutes and read on an LJL Analyst GT reader in luminometer mode with an integration time of 0.5 seconds per well. Percent inhibition of cell growth was calculated relative to DMSO vehicle-treated control wells. Concentration of compound required to give 50% inhibition of vehicle-treated control cell growth (IC50) was interpolated using a 4-parameter fit for determining IC50 using the following equation: Y=A +((B−A)/(1+((C/X)̂D))) where […].

B-Raf = B-Raf (Homo sapiens, UniProt P15056); assay: B-Raf Accelerated MEK ATPase assay (BRAMA), Method A or B; type: biochemical; settings: Method B: final MEK 150 nM, single end point read
Chain of B-Raf (P15056 whole entry): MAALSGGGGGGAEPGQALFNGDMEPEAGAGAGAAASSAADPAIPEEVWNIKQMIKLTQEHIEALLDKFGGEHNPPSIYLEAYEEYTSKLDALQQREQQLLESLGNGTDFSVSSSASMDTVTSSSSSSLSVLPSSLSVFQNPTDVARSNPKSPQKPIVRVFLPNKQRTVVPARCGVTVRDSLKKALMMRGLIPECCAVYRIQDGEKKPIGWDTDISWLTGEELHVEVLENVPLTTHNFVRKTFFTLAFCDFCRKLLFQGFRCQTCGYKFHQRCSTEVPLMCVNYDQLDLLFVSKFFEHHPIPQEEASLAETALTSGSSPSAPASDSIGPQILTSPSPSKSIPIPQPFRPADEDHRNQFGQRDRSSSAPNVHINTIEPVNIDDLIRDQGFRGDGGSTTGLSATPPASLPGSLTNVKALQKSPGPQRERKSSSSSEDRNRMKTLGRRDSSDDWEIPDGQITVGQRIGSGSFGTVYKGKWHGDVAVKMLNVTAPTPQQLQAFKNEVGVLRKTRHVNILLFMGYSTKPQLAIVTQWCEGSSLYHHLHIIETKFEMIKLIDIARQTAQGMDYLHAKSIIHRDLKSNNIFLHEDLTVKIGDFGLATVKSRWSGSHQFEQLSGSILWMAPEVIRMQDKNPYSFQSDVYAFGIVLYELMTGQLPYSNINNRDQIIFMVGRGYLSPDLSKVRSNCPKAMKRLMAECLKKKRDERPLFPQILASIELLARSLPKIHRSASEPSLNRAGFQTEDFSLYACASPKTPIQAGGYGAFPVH
Description: Compounds of the present invention were tested for B-Raf protein serine kinase inhibitory activity in a B-Raf Accelerated MEK ATPase assay (BRAMA). The BRAMA assay is a high sensitivity assay which measures an intrinsic MEK-mediated ATP hydrolysis uncoupled from downstream ERK phosphorylation by coupling the formation of ADP to NADH oxidation through the enzymes pyruvate kinase and lactate dehydrogenase. When ADP production is initiated by addition of catalytic amounts of an activated Raf enzyme and non-phosphorylated MEK, one observes robust ADP production concomitant with Raf-mediated phosphorylation of MEK.
Method A: Specific details of the assay are disclosed in: C. Rominger, M. Schaber, E. May. Assay for B-Raf Activity Based on Intrinsic MEK ATPase Activity. Statutory Invention Registration 11/084,993 (March, 2005). Method B: The method is the same as method A, but includes the following changes: 1) the assay was performed with a final MEK concentration of 150 nM and 2) the assay was read as single end point instead of a kinetic read.

Colo205 tumor cells = assay: Cell growth inhibition assay (CellTiter-Glo), Colo205; type: cell-based, Human; settings: Homo sapiens, COLO 205, 72 h; 3 days incubation
Description: as §8, §9, §10

EGFR = molecular target: T2, EGFR (Homo sapiens, UniProt P00533); assay: EGFR substrate phosphorylation assay (HTRF); type: biochemical
T2 construct: made in house; host or cells: baculovirus expression system
T2 sequence (P00533 25-1210): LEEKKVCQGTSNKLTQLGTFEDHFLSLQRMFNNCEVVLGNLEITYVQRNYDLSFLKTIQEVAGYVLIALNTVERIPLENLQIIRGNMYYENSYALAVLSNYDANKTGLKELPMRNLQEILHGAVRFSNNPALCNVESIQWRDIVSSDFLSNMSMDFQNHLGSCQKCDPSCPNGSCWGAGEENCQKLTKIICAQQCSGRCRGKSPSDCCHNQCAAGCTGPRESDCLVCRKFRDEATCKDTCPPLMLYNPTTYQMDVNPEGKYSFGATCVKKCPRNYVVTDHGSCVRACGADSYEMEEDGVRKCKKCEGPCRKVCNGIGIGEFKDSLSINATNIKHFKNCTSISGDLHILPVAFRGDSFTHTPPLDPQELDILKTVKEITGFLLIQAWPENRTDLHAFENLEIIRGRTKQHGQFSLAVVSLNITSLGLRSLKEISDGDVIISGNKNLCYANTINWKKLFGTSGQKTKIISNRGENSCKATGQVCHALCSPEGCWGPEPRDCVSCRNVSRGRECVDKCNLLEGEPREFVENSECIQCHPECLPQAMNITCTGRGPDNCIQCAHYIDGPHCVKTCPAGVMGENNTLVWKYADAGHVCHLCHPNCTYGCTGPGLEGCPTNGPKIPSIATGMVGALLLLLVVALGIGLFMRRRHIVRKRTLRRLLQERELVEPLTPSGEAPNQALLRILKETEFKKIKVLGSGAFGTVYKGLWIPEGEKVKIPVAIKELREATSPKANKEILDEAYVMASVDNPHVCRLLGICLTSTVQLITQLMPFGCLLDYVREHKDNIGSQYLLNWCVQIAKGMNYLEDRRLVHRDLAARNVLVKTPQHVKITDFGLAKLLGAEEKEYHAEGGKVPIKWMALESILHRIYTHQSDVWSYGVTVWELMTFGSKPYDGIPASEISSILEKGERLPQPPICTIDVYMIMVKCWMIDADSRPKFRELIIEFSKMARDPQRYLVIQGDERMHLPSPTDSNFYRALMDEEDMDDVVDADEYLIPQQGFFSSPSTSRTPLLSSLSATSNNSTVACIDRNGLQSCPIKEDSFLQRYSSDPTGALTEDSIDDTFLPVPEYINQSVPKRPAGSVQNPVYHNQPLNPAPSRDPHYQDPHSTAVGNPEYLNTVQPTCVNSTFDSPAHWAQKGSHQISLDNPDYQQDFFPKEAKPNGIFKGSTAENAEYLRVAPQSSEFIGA
Description: as §1, §2, §3, §4, §5, §6, §7

T1 sequence (P04626 23-1255): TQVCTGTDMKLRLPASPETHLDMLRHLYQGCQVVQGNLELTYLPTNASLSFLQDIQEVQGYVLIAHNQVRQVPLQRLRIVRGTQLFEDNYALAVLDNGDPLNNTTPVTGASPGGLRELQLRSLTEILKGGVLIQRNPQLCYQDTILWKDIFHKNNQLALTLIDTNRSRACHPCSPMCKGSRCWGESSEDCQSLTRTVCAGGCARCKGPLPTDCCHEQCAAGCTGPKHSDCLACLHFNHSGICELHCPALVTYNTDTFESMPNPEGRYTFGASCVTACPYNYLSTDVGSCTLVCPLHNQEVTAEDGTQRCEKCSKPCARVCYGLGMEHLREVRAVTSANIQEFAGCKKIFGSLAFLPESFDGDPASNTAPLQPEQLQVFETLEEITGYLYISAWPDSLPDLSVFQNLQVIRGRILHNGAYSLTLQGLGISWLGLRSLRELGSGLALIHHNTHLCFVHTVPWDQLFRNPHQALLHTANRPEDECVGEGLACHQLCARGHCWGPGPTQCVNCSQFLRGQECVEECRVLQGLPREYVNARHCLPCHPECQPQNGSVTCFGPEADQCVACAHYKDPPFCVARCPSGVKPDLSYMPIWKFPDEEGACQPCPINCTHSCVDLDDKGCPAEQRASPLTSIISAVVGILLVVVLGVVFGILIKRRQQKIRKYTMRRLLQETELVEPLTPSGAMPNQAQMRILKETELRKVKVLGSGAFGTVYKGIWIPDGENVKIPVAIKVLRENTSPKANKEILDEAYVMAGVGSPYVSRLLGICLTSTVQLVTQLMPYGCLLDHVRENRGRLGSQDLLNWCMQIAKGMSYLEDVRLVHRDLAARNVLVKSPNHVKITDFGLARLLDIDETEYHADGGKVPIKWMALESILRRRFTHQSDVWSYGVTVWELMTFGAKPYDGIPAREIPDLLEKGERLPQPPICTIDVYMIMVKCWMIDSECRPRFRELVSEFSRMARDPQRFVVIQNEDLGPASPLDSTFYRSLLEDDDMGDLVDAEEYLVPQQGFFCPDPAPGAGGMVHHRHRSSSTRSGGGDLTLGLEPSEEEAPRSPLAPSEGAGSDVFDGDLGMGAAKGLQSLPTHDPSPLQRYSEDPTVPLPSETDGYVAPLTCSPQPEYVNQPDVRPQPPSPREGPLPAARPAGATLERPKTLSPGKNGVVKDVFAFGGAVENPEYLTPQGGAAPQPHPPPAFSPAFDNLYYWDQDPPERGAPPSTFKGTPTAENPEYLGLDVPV

Structure (SMILES)	IC50 (ErbB2) [nM]	IC50 (SK-MEL-28 tumor cells) [nM]	IC50 (B-Raf) [nM]	IC50 (Colo205 tumor cells) [nM]	IC50 (EGFR) [nM]
COc1ccc(S(=O)(=O)Nc2cccc(-c3nc(C(C)C)sc3-c3ccnc(Nc4ccc(N5CCOCC5)nc4)n3)c2)cc1OC [Example 104]	> 1000	> 1000	100 to 1000	100 to 1000	> 1000
Cc1cc(S(=O)(=O)Nc2cccc(-c3nc(C(C)C)sc3-c3ccnc(Nc4ccc(N5CCOCC5)nc4)n3)c2)c(F)cc1Cl [Example 105]	100 to 1000	> 1000	100 to 1000	100 to 1000	> 1000
COc1cc(N2CCC(CCS(C)(=O)=O)CC2)c(C)cc1Nc1nccc(-c2sc(C(C)C)nc2-c2ccnc(NS(=O)(=O)c3c(F)cccc3F)c2)n1 [Example 108]	> 1000	> 1000	< 100	100 to 1000	> 1000
COC(=O)c1ccc(S(=O)(=O)Nc2cccc(-c3nc(C(C)C)sc3-c3ccnc(Nc4ccc(N5CCOCC5)nc4)n3)c2)o1 [Example 110]	> 1000	> 1000	< 100	100 to 1000	> 1000
Cc1ccc(-c2nc(C(C)C)sc2-c2ccnc(Nc3ccc(N4CCOCC4)nc3)n2)cc1NS(=O)(=O)c1c(F)cccc1F [Example 111]	100 to 1000	> 1000	100 to 1000	> 1000	100 to 1000
COc1cc2c(cc1Nc1nccc(-c3sc(C(C)C)nc3-c3cccc(NS(=O)(=O)c4c(F)cccc4F)c3)n1)N(C(=O)CN(C)C)CC2 [Example 118]	100 to 1000	> 1000	100 to 1000	> 1000	100 to 1000
COc1cc(N2CCN(CCS(C)(=O)=O)CC2)c(C)cc1Nc1nccc(-c2sc(C(C)C)nc2-c2cccc(NS(=O)(=O)c3c(F)cccc3F)c2F)n1 [Example 125]	< 100	< 100	< 100	100 to 1000	< 100
COc1cc(N2CCN(CCS(C)(=O)=O)CC2)c(C)cc1Nc1nccc(-c2sc(C)nc2-c2cccc(NS(=O)(=O)c3c(F)cccc3F)c2)n1 [Example 134]	100 to 1000	100 to 1000	100 to 1000	100 to 1000	< 100
